Several values for one entry are separate records, joined by “and”; a condition that tells them apart may be missing. Equal values may be shown once.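 Grown in 96-well plates, cells were treated for 48 hours with each compound at five concentrations. Insufficient inhibition: endpoint recorded as highest concentration tested. TGI: total growth inhibition.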
Experiments:
Assay in all cases: NCI anticancer screen, dose series, 48 h
[1] = system: HS 578T breast
[2] = system: UO-31 renal
[3] = system: DU-145 prostate
[4] = system: RXF 393 renal
[5] = system: OVCAR-8 ovarian
[6] = system: UACC-257 melanoma
[7] = system: NCI-H522 lung
[8] = system: U251 CNS
[9] = system: T-47D breast
[10] = system: KM12 colon

Row | SMILES | TGI [1] | TGI [2] | TGI [3] | TGI [4] | TGI [5] | TGI [6] | TGI [7] | TGI [8] | TGI [9] | TGI [10]
1 | COc1ccc2c(-c3csc(-c4c[nH]c5ccccc45)n3)c[nH]c2c1 | > 78.7 µM | 30.6 µM | > 44.8 µM | 17.9 µM | > 60.6 µM | > 90.6 µM | 25.4 µM | 29.8 µM | > 100 µM | 14.8 µM
2 | C=C1CC2C[C@H](OS(=O)(=O)c3ccc(C)cc3)C(C1)N2C (stereo not given in full) | > 100 µM | > 100 µM | > 100 µM | > 100 µM | > 100 µM | > 100 µM | > 100 µM | > 100 µM | > 100 µM | > 100 µM
3 | CO/C=C(/C(=O)OC)c1ccccc1[C@H]1C[C@@H]1c1ccccc1 | > 100 µM | > 100 µM | > 100 µM | > 100 µM | > 100 µM | 41.3 µM | 32 µM | > 100 µM | 63.1 µM | 49 µM
4 | Cc1cccc2c1C(=O)/C(=C/c1ccccc1C(=O)O)C2 | > 100 µM | > 100 µM | > 100 µM | > 100 µM | > 100 µM | > 100 µM | > 100 µM | > 100 µM | > 100 µM | > 100 µM
5 | Cc1nc2cccc(F)c2c(=O)n1-c1nnc(C2CC2)s1 | > 10 µM | > 10 µM | > 10 µM | > 10 µM | > 10 µM | > 10 µM | > 10 µM | > 10 µM | > 10 µM | > 10 µM
6 | CC(=O)c1nc(C#N)c(N)o1 | > 100 µM | > 100 µM | > 100 µM | > 100 µM | > 100 µM | > 100 µM | > 100 µM | > 100 µM | > 100 µM | > 100 µM
7 | COc1nc2ncc([C@@H](O)[C@H](O)CO)nc2c(=O)[nH]1 | > 100 µM | > 100 µM | > 100 µM | > 100 µM | > 100 µM | > 100 µM | > 100 µM | > 100 µM | > 100 µM | > 100 µM
8 | CC1CC2OC(=N)C1(C#N)C2(C#N)C#N (stereo not given) | > 100 µM | 93 µM | > 100 µM | 31.1 µM | > 100 µM | 41 µM | 37.8 µM | > 100 µM | 97.4 µM | > 100 µM
9 | Nc1nn2cc(-c3ccccc3)[n+](CC(=O)c3ccccc3)c2s1 | 43.6 µM | > 100 µM | > 100 µM | 62.4 µM | > 100 µM | 70.5 µM | 26.1 µM | 29.6 µM | 55 µM | 47.1 µM
10 | CCOC(=O)CCC1(C(=O)O[C@@H]2C[C@H](C)CC[C@H]2C(C)C)CCCCC1=O (stereo not given in full) | > 100 µM | > 100 µM | > 100 µM | > 100 µM | > 100 µM | 60 µM | > 100 µM | > 100 µM | > 100 µM | > 100 µM
11 | CC(C)(CO)Nc1c(O)c2c(c(O)c1Cl)C(=O)C=CC2=O | 3.41 µM | 2.88 µM | 3.35 µM | 3.31 µM | 2.71 µM | 3.11 µM | 0.928 µM | 3.11 µM | 4.18 µM | 2.78 µM
12 | N#Cc1nc(-c2ccccn2)c(-c2ccccn2)nc1C#N | 29.1 µM | 5.64 µM | 12.7 µM | 15.9 µM | 15.3 µM | 14.7 µM | 16.6 µM | > 37.3 µM | 9.5 µM | 11.6 µM
13 | O=C(CSCC(=O)N/N=C\c1cccc(Br)c1)N/N=C\c1cccc(Br)c1 | 35.7 µM | 33.1 µM | 48.3 µM | 67.9 µM | 35.4 µM | 33.2 µM | 51.9 µM | 28.8 µM | 54.6 µM | 32.8 µM
14 | Cn1c(-c2cccs2)cc(-c2ccsc2)c1-c1ccsc1 | > 100 µM | > 100 µM | > 100 µM | > 100 µM | > 100 µM | > 100 µM | > 100 µM | > 100 µM | 59.6 µM | > 100 µM
15 | O=C1CSC2=NC3=C(COC/C3=C\c3ccc(F)cc3)C(c3ccc(F)cc3)N12 (stereo not given) | > 100 µM | > 100 µM | > 100 µM | > 100 µM | > 100 µM | > 100 µM | > 100 µM | > 100 µM | > 100 µM | > 100 µM
16 | Cc1cnc2cc(Cl)ccc2c1SCC(=O)O | > 100 µM | > 100 µM | > 100 µM | > 100 µM | > 100 µM | > 100 µM | > 100 µM | > 100 µM | > 100 µM | > 100 µM
17 | [O-][n+]1cc(SCc2ccccc2)ncc1SCc1ccccc1 | > 10 µM | > 10 µM | > 10 µM | > 10 µM | > 10 µM | > 10 µM | > 10 µM | > 10 µM | > 10 µM | > 10 µM

Row | SMILES | TGI [1] | TGI [2] | TGI [3] | TGI [4] | TGI [5] | TGI [6] | TGI [7] | TGI [8] | TGI [9] | TGI [10]
18 | c1ccc2c(c1)[C@@H]1O[C@@H]1[C@@]13O[C@@]21[C@H]1O[C@H]1c1ccccc13 | 28.3 µM | 51.1 µM | 29.2 µM | 25.7 µM | 39.6 µM | 37.2 µM | 25.4 µM | 28.2 µM | 57.8 µM | 29.2 µM
19 | Oc1cccc(-c2cn3cc(Cl)ccc3n2)c1 | > 100 µM | > 100 µM | > 100 µM | 86 µM | > 100 µM | 77.5 µM | 43.3 µM | > 100 µM | 48.2 µM | > 100 µM
20 | CC1=NNC(N)=N/C1=C\C(Sc1ccc(Cl)cc1)c1ccc(Cl)cc1Cl (stereo not given) | 44.2 µM | 27 µM | 61.7 µM | 50.9 µM | 31.7 µM | 39.9 µM | 18.6 µM | > 57.1 µM | 38.8 µM | 34.2 µM
21 | CC(=O)OC1COC(n2c(N)c(C#N)c(-c3ccccc3)c(C#N)c2=S)C(OC(C)=O)C1OC(C)=O (stereo not given) | > 100 µM | > 100 µM and 67.8 µM | > 100 µM | 83.1 µM and > 100 µM | > 100 µM and 97.3 µM | > 100 µM | > 100 µM | > 100 µM | > 100 µM | > 100 µM
22 | Nc1nc(Cl)cc(NCC2CC(O)(CO)C2)n1 (stereo not given) | > 100 µM | > 100 µM | > 100 µM | > 100 µM | > 100 µM | > 100 µM | > 100 µM | > 100 µM | > 100 µM | > 100 µM
23 | O=C(OCC(OC(=O)c1ccccc1)C1CC(C(O)C2CCCCC2)C(=O)O1)c1ccccc1 (stereo not given) | > 100 µM | > 100 µM | > 100 µM | > 100 µM | > 100 µM | > 100 µM | > 100 µM | > 100 µM | > 100 µM | > 100 µM
24 | CC(C)c1cc(C(C)C)c(B(c2ccccc2)c2ccccc2)c(C(C)C)c1Br | > 100 µM | > 100 µM | > 100 µM | > 100 µM | > 100 µM | > 100 µM | > 100 µM | > 100 µM | > 100 µM | > 100 µM
25 | CCOC(=O)C1=C(C)N(c2ccc(Cl)cc2)C2(O)C=CC(=O)C3C(=O)N(c4ccccc4)C(=O)C132 (stereo not given) | 12.8 µM | 3.31 µM | 4.65 µM | 3.31 µM | 6.32 µM | 6.76 µM | 2.38 µM | 5.39 µM | 6.55 µM | 3.52 µM
26 | C[C@@H]1CC(=O)[C@@]2(C)[C@](O)(CCC3O[C@]32C)[C@@]12CC(c1ccoc1)OC2=O (stereo not given in full) | > 100 µM | > 100 µM | > 100 µM | 88.6 µM | > 100 µM | > 100 µM | > 100 µM | > 100 µM | > 100 µM | > 100 µM
27 | NS(=O)(=O)c1ccc(NS(=O)(=O)c2ccc(NC(=O)N(c3ccccc3)c3ccccc3)cc2)cc1 | > 100 µM | > 100 µM | > 100 µM | 80.9 µM | > 100 µM | > 100 µM | > 100 µM | > 100 µM | > 100 µM | > 100 µM
28 | CC(NC1=NCCO1)c1ccco1 (stereo not given) | > 100 µM | > 100 µM | > 100 µM | > 100 µM | > 100 µM | > 100 µM | > 100 µM | > 100 µM | > 100 µM | 90.2 µM
29 | NC(=O)c1ccc(S(=O)(=NS(=O)(=O)c2ccccc2)c2ccc(C(N)=O)cc2)cc1 | > 100 µM | > 100 µM | > 100 µM | > 100 µM | > 100 µM | > 100 µM | > 100 µM | > 100 µM | > 100 µM | > 100 µM
30 | CSC(=N/N=C(\C)c1ccc(S(=O)(=O)N(C)c2ccccc2)cc1)SC | > 100 µM | > 100 µM | > 100 µM | > 100 µM | > 100 µM | > 100 µM | > 100 µM | > 100 µM | > 100 µM | > 100 µM
31 | CCOC(=O)c1sc2[n+](c1C)C(=O)/C(=C/c1ccccc1Cl)S2 | > 73.3 µM | 25 µM | > 35.6 µM | > 68.1 µM | 35 µM | > 70.2 µM | 7.65 µM | 24.4 µM | 55.1 µM | 18.2 µM
32 | C[S+](C)C1(c2ccccc2)C(=O)c2ccccc2C1=O | 60.8 µM | > 56.5 µM | > 100 µM | > 100 µM | > 100 µM | > 100 µM | > 68.7 µM | > 66.3 µM | 92.1 µM | > 100 µM
33 | CC(=O)OCC12C(OC(C)=O)C[C@@H](C)C3(CC(c4ccoc4)OC3=O)C1CCC(OC(C)=O)C21CO1 (stereo not given in full) | > 100 µM | > 100 µM | > 100 µM | > 100 µM | > 100 µM | > 100 µM | > 100 µM | > 100 µM | > 100 µM | > 100 µM

— PubChem BioAssay (NCI)
